The source of these data is ChEMBL document CHEMBL1201862, “PubChem BioAssay data set” (2004).

Test [1] concerns the target T1, Beta-galactosidase (Escherichia coli, UniProt Q8VNN2). In kind it is functional.
In a further test the test system is BJ. In words: BJ-TERT-LT-ST fibroblast viability loss – cell-based, RAS-independent, luminescence, dose response (AID 1935).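 Further: BJ fibroblasts immortalized with TERT plus LT and ST oncogenes.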 The following applies: Homo sapiens. In kind it is functional.
Test [2] concerns the target Cyclin-dependent kinase 7 (Homo sapiens, UniProt P50613). The format is functional.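 Further: value comes from a kinome-wide kinase profiling panel in which CDK7 is one member.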
Test [3] concerns the target Protein kinase C iota type (Homo sapiens, UniProt P41743). The format is functional.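 Further: measured within a kinome-wide kinase panel, PRKCI as panel member.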
Test [4] concerns the target Receptor tyrosine-protein kinase erbB-2 (Homo sapiens, UniProt P04626). In words: Navigating the Kinome. Panel member name: ERBB2. The format is functional.
In test [5] the target is Serine/threonine-protein kinase MRCK alpha (Homo sapiens, UniProt Q5VT25). The format is functional.
Test [6] addresses Glycogen synthase kinase-3 alpha (Homo sapiens, UniProt P49840). In kind it is functional.
For test [7], the target named is BDNF/NT-3 growth factors receptor (Homo sapiens, UniProt Q16620). In kind it is functional.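 Further: NTRK2 measured as one member of a broad kinome-wide kinase profiling panel.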
Test [8] concerns the target Rho-associated protein kinase 1 (Homo sapiens, UniProt Q13464). The format is functional.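 Further: measured within a broad kinome-wide panel profiling many kinases.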
Test [9] has as its target Calcium/calmodulin-dependent protein kinase type 1 (Homo sapiens, UniProt Q14012). The format is functional.
Test [10] has as its target Serine/threonine-protein kinase Chk2 (Homo sapiens, UniProt O96017). In kind it is functional.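 Further: CHEK2 entry within a kinome-wide screening panel.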
The target in test [11] is Casein kinase I isoform gamma-1 (Homo sapiens, UniProt Q9HCP0). The format is functional.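 Further: measured as the CSNK1G1 member of a kinome profiling panel.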
The next test concerns the target Focal adhesion kinase 1 (Homo sapiens, UniProt Q05397). In kind it is functional.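 Further: measured as one member of a kinome panel.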
In test [12] the target is Dual specificity tyrosine-phosphorylation-regulated kinase 1A (Homo sapiens, UniProt Q13627). In kind it is functional.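 Further: measured against DYRK1A as one member of a broad kinome profiling panel.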
For test [13], the target named is Dual specificity protein kinase CLK4 (Homo sapiens, UniProt Q9HAZ1). The format is functional.
Test [14] deals with MAP kinase-interacting serine/threonine-protein kinase 2 (Homo sapiens, UniProt Q9HBH9). In kind it is functional.
Test [15] concerns the target Mast/stem cell growth factor receptor Kit (Homo sapiens, UniProt P10721). The format is functional.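 Further: KIT entry within a kinase panel assay.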
The target in test [16] is Tyrosine-protein kinase receptor TYRO3 (Homo sapiens, UniProt Q06418). The format is functional.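 Further: TYRO3 value obtained as one member of a kinome-wide profiling panel.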
For test [17], the target named is Homeodomain-interacting protein kinase 4 (Homo sapiens, UniProt Q8NE63). The format is functional.
For test [18], the target named is RAC-gamma serine/threonine-protein kinase (Homo sapiens, UniProt Q9Y243). The format is functional.
Test [19] has as its target Serine/threonine-protein kinase PLK4 (Homo sapiens, UniProt O00444). The format is functional.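 Further: PLK4 measured as one member of a kinome-wide kinase profiling panel.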
Test [20] concerns the target Serine/threonine-protein kinase PLK3 (Homo sapiens, UniProt Q9H4B4). The format is functional.
The next test relates to HEK293. In words: cells. The format is functional, cell-based. The note with it: Homo sapiens.
Test [21] deals with T2, Histone-lysine N-methyltransferase NSD2 (Homo sapiens, UniProt O96028).
T2 sequence (O96028 whole entry): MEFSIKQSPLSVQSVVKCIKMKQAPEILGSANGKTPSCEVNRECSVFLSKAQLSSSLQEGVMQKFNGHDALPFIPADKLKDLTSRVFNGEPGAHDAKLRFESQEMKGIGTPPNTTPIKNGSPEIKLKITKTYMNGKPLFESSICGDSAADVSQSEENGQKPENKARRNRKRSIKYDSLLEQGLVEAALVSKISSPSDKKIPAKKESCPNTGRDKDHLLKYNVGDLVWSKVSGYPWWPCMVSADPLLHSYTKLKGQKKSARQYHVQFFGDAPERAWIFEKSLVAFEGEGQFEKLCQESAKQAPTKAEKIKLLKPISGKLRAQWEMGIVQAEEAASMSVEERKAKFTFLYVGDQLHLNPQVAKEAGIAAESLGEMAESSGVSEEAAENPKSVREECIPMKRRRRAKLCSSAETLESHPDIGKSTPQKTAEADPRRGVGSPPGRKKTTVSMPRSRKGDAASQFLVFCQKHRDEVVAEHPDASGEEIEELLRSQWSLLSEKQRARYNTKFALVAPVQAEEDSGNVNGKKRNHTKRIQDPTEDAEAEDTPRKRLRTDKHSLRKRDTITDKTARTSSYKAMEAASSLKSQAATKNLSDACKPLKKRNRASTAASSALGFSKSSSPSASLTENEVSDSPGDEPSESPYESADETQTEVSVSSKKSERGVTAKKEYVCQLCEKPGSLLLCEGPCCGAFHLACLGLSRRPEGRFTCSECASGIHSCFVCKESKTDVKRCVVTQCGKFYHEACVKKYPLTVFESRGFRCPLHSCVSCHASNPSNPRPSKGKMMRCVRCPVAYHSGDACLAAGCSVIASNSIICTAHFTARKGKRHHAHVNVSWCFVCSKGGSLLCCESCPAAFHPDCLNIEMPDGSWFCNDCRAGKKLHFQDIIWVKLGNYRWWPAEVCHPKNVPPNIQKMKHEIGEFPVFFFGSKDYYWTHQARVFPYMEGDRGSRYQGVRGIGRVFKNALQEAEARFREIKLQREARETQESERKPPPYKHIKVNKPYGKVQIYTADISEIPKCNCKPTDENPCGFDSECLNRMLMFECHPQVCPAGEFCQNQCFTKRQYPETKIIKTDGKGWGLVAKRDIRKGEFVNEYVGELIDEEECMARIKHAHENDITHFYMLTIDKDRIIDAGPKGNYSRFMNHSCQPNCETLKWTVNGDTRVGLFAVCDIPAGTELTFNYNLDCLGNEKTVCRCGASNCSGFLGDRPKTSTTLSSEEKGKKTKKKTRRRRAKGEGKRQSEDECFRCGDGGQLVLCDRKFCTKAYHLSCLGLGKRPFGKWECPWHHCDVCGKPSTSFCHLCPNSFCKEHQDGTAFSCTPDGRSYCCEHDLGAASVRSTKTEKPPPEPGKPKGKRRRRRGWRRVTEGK
In kind it is biochemical.

Test [22] deals with T1, Beta-galactosidase. In words: detection-enzyme interference by beta-gal modulators – biochemical, E. coli enzyme, set 3, artefact control for CCR6 antagonist project, dose response (AID 504712). The format is functional.
Test [23] can be described thus: viability loss in HeLa cells – cytotoxicity control for MgcRacGAP inhibitor project, dose response (AID 624300). In kind it is functional.

The structures appear in SMILES notation. Active and inactive are the calls of the source.

T1 sequence (Q8VNN2 whole entry): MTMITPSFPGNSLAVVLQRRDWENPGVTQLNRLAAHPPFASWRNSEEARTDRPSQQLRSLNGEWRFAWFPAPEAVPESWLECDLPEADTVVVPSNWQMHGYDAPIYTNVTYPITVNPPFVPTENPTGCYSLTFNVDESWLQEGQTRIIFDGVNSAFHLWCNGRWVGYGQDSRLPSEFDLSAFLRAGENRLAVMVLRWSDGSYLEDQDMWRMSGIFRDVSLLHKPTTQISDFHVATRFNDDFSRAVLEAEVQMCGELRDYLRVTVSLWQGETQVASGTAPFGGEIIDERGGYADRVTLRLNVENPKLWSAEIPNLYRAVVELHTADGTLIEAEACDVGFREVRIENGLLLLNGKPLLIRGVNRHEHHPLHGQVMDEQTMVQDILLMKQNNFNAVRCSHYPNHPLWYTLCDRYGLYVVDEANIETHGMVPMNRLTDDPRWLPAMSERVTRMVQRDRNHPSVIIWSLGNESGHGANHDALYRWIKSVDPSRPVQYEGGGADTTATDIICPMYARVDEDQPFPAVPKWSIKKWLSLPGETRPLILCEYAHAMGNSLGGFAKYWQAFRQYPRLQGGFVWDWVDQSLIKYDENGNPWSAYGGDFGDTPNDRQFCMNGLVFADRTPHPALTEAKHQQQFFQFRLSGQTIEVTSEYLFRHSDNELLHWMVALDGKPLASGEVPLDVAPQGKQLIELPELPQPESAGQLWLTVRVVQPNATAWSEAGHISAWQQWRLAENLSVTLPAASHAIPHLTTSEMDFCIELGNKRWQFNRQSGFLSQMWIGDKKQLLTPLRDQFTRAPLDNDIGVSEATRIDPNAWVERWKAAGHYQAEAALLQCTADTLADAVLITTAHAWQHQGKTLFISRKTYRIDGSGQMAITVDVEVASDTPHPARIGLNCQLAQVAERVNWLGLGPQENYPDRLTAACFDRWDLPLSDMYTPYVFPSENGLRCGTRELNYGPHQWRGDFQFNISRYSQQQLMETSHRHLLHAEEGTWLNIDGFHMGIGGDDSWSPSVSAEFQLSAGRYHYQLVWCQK
Mast/stem cell growth factor receptor Kit, sequence (P10721 whole entry): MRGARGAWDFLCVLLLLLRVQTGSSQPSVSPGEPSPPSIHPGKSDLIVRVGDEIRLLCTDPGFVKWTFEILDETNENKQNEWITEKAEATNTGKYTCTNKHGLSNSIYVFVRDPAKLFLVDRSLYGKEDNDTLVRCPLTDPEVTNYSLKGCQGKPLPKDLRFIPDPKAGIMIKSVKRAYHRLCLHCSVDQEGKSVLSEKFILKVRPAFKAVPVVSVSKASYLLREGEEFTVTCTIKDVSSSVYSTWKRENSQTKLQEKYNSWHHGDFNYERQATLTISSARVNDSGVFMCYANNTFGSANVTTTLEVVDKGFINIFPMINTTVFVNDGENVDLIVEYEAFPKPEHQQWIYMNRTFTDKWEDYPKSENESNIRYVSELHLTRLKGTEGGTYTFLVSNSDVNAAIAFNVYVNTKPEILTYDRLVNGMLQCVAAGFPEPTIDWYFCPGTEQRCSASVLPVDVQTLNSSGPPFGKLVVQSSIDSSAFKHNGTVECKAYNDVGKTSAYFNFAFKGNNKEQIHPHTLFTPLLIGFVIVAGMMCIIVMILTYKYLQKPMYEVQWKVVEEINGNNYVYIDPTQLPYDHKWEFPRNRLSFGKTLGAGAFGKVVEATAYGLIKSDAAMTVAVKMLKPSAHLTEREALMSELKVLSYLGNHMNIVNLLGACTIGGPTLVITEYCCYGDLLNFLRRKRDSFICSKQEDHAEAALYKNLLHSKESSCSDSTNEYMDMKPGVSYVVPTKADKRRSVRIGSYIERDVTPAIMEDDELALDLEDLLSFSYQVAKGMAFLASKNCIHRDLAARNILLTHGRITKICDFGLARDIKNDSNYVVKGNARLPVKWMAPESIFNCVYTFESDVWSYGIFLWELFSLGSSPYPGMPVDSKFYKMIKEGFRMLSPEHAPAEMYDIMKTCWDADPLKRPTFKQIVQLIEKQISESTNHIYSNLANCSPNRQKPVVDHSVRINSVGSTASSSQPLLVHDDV
Focal adhesion kinase 1, sequence (Q05397 whole entry): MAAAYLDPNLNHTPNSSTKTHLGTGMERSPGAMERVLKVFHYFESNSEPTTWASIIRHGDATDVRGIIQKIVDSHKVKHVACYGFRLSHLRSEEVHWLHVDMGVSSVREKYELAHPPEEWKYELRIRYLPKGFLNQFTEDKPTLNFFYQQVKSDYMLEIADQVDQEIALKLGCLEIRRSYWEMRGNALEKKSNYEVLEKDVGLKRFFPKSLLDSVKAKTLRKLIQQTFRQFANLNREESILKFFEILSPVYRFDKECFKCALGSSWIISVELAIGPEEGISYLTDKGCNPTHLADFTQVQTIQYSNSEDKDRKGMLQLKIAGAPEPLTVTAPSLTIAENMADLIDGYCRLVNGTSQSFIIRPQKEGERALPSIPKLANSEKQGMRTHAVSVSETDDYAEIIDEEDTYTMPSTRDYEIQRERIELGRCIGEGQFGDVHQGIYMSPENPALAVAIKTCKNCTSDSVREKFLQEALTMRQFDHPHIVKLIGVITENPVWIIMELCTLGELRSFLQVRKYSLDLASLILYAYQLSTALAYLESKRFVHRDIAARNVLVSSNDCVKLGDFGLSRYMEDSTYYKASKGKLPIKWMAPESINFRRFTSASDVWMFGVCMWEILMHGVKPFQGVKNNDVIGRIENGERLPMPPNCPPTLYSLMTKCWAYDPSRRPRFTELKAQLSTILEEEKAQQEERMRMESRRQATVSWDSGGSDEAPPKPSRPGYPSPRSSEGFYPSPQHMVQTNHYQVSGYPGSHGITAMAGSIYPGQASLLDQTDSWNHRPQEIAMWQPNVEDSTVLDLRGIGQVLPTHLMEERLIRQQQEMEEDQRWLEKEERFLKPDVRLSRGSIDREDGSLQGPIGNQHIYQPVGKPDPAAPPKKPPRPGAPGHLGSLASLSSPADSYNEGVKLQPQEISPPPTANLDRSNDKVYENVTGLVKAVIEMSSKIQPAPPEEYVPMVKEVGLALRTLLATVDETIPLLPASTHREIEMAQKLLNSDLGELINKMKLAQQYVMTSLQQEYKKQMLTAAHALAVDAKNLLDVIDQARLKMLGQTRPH
Serine/threonine-protein kinase PLK4, sequence (O00444 whole entry): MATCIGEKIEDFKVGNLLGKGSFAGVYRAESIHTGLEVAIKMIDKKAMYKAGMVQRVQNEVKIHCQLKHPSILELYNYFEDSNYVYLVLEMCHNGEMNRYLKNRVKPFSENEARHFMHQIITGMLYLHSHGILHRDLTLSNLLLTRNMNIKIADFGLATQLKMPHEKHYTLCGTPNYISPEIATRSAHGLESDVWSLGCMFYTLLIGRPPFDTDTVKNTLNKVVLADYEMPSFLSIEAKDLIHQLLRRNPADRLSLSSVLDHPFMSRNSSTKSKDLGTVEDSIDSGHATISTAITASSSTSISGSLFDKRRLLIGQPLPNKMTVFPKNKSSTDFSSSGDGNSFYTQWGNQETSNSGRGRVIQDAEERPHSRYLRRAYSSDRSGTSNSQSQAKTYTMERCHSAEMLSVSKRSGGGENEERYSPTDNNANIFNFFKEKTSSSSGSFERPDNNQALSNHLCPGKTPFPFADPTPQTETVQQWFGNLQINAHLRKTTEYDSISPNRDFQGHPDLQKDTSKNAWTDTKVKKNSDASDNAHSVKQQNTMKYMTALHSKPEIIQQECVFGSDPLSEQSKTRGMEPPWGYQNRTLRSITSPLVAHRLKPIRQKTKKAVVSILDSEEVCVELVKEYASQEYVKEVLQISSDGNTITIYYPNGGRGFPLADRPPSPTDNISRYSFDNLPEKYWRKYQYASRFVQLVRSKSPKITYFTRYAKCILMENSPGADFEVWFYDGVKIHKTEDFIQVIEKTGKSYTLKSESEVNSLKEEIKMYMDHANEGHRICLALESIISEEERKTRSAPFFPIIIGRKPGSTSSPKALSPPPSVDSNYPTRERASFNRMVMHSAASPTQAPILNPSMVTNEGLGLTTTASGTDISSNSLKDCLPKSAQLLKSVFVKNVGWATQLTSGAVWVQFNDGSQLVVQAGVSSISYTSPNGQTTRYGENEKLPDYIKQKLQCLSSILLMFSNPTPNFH
Glycogen synthase kinase-3 alpha, sequence (P49840 whole entry): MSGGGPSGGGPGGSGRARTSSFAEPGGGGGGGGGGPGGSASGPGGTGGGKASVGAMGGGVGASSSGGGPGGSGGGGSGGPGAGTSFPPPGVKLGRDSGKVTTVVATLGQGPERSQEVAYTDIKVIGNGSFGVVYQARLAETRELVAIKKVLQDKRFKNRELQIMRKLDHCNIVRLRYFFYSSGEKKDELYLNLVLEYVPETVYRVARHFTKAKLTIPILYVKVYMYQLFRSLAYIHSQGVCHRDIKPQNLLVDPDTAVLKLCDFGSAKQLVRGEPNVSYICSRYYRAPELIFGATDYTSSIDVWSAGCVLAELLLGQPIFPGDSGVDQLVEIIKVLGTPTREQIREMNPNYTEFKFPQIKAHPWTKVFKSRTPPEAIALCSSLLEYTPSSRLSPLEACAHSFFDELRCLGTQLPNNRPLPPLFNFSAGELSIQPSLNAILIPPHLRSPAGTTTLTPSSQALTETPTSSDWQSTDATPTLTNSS
Dual specificity protein kinase CLK4, sequence (Q9HAZ1 whole entry): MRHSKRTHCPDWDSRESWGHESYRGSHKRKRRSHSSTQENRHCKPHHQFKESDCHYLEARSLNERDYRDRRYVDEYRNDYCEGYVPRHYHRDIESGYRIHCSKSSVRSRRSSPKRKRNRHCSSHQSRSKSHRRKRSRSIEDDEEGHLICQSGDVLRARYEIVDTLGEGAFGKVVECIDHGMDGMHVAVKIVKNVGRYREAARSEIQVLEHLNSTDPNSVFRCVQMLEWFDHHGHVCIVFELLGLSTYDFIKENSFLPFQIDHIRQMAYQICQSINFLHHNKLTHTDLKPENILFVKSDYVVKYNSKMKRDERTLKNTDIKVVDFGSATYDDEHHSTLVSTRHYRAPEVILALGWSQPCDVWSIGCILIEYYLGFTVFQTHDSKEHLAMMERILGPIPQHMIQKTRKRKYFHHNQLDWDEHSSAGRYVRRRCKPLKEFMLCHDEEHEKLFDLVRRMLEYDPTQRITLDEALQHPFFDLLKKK

Broadly, the EC50 is the concentration at which the effect is half-maximal. `Cc1ccc(Nc2cc(C)nn2-c2nc(C)cc(O)n2)cc1`: the EC50 at Beta-galactosidase [1] is > 31500 nM (inactive); in the test with BJ it was 2940 nM (inconclusive).
By Ki is commonly meant a measure of affinity in units of concentration, obtained from inhibition or displacement. Consider `O=C1NC(=S)SC1=C1C(=O)Nc2ccc(Br)cc21`, for which the Ki is > 1580 nM (inactive) in test [2]; > 5010 nM (inactive) in [3]; > 1580 nM (inactive) in test [4]; > 10000 nM (inactive) in [5]; 316 nM (active) in test [6]; > 5010 nM (inactive) in test [7]. Further, the Ki in test [8] is 5010 nM (active); in test [9], > 3160 nM (inactive); in test [10] it was 1260 nM (active); in test [11], > 6310 nM (inactive); on Focal adhesion kinase 1, > 1580 nM (inactive); in test [12] it was 1000 nM (active). Besides, the Ki was 631 nM (active) in test [13]; 794 nM (active) in test [14]; > 1260 nM (inactive) in [15]; > 2000 nM (inactive) in [16]; 631 nM (active) in test [17]; > 10000 nM (inactive) in [18]. Moreover, the figures for the inhibition constant (Ki) in [19] and in test [20] were 1260 nM (active) and 3160 nM (active), respectively.
Broadly, the IC50 is the concentration needed to halve the response being measured. By AC50 is commonly meant the concentration at which the activity in the assay is half-maximal. As for `O=C1C(O)=C/C(=N\c2ccccc2O)c2ccccc21`, the IC50 in the test on HEK293 is > 20000 nM (inactive). In addition, the AC50 in [21] was 2390 nM (active).
As usually defined, the CC50 is the concentration giving 50% cytotoxicity. Regarding `CN(C)c1ncc(C2=C(Cl)C(=O)C(N3CCCC3)=C(Cl)C2=O)s1`, the IC50 on Beta-galactosidase [22] was > 66600 nM (inactive). For the same compound, the half-maximal cytotoxic concentration (CC50) in test [23] was 18700 nM (active).
